Measured values: patent US20220000964A1, “Compositions and Methods for Regulating Homeostasis of Chondrocytes, Extracellular Matrix, Articular Cartilage, and Phenotype of Arthritis” (Unigen, Inc., priority 2020, published 2022)
Several values for one entry are separate records, joined by “and”; a condition that tells them apart may be missing. Equal entries are not always repeated.

Legend:
[1] = tested on: rabbit cartilage explants; test: Inhibition of glycosaminoglycan (GAG) release, rabbit cartilage explants stimulated with rhIL-1α; format: cell-based; settings: for inhibition at 25 µg/mL: 25 μg/ml; for inhibition at 100 µg/mL: 100 μg/ml
Protocol: Articular cartilage from hock joints of rabbits (2.5 kg body weight) was removed immediately after each animal was sacrificed. The articular cartilage explants were obtained by following the method described by Sandy et al, 1986. Briefly, after the articular surfaces were exposed surgically under sterile conditions, approximately 200-220 mg articular surfaces per joint were dissected and submerged into complete medium (DMEM, supplemented with heat inactivated 5% FBS; penicillin 100 U/ml; streptomycin 100 μg/ml). They were then rinsed several times with the complete medium and incubated for 2 days at 37° C. in a humidified 5% CO2/95% air incubator for stabilization. The complete medium was replaced with a basal medium (DMEM, supplemented with heat-inactivated 1% FBS, 10 mM HEPES, and penicillin 100 U/ml streptomycin 100 μg/ml). Approximately 30 mg cartilage pieces (2×3×0.35 mm/piece) were placed in 48-well plates and treated with given concentrations of test agents. After pretreatment for 1 h, 5 ng/ml of rhIL-1α was added to the culture medium and further incubated at 37° C. in a humidified 5% CO2/95% air incubator. The culture medium was collected 24 h later and stored at −80° C. until assay.
The amount of sulphated GAGs in the medium at the end of the reaction, reflecting the amount of articular cartilage degradation, was determined through 1,9-dimethy-methylene blue method using commercially available kit (the Blyscan proteoglycan and glycosaminoglycan assay) according to the instructions of the manufacturer. Diclofenac was utilized as a positive control at 300 μg/ml.
Dose curves of Alpinia, Pepper, Magnolia, and Kochia plant extracts were tested on the ex vivo glycosaminoglycan (GAG) release assay as illustrated in previous example to assess their cartilage protection effects. Cartilage explants were pre-treated with each extract before being exposed to IL-1α, which caused degradation and the release of GAGs from the cartilage matrix.

[2] = tested on: Sprague Dawley rats; test: Hot plate test, topical application, paw withdrawal latency; format: in vivo, rat; settings: for Paw withdrawal threshold (latency) Mean ± SD: in s (unit assumed); for % Change: negative = increased paw withdrawal latency; for increase in paw withdrawal latency as compared to vehicle: 5% concentration
From the text: Repeated application of anti-inflammatory compounds or extracts topically at the site of thermal contact (noxious stimulus) may cause desensitization of the peripheral afferent pain receptors to produce a delay in response time. A longer change in reaction time could be interpreted as an anti-nociceptive effect of the applied compound. To evaluate whether prepared plant extracts and compositions could provide anti-nociceptive activity, rats received orally-active anti-inflammatory extracts formulated in 2% Aloe vera gel at 5% concentration topically on their hind paws. The applied preparations on each paw were massaged at least 60 times in a circular motion into the skin until the applied content appeared visually absorbed. The procedure was repeated 3 times, every 30 minutes, before placing the animals on a preheated hot plate set to 53° C. The paw withdrawal latency was calculated as the time elapsed from the initial placement of the rat onto the hotplate to the withdrawal (or licking or shaking) of the hind paw in response to the thermal stimulus. Animals were immediately removed when this response was observed.
The anti-pain activity of medicinal plant extracts was tested on a hot plate set at 53° C. Test materials at 5% concentrations were topically applied at 20 μl/paw to the hind paws of both right and left paws of Sprague Dawley rats (n=10 per group). Applications of these extracts were carried out every 30 minutes for a total of 90 minutes. Within these 90 minutes, rats received a total of 60 μl/paw of the test article per rat. At 5% concentration, each rat received 3 mg/paw of the test articles. Due to the solubility characteristics of the compounds, two types of vehicles, V1=Dimethyl sulfoxide (DMSO)+propylene glycol (PG)+Aloe (2%), and V2=DMSO+OIL+PG, were used. Percent changes and P-values for statistical significance were determined using respective vehicles for each test material. The vehicle used for each material has been indicated in the parenthesis next to the test material. […] These increases in anti-pain activity were statistically significant. […] This percent change was statistically significant when compared to its respective vehicle.

[3] = tested on: Carrageenan-induced paw edema in rats; test: Carrageenan-induced paw edema in rats, paw edema (anti-inflammation); format: in vivo, rat
Protocol: (§1) Carrageenan-induced paw edema in rats was used to evaluate the anti-inflammatory and anti-pain activities of individual Alpinia, Pepper, Magnolia and Kochia extracts. Sprague Dawley (SD) rats (N=5 per group) were given Alpinia, Pepper, Magnolia and Kochia extracts at 300 mg/kg orally one hour […] intra-plantar injection of 100 μl carrageenan. Pain sensitivity and paw edema were monitored at T0 (before carrageenan) and 2, 4 and 6 hours after carrageenan. Ibuprofen as a positive control was used at 150 mg/kg.
(§2) Rats were gavaged with each constituent as they appeared in the 300 mg/kg of the AMK individually in order to determine whether the plant extracts acted synergistically. For the 2:4:3 ratio of AMK, rats were administered with 67 mg/kg of Alpinia extract, 133 mg/kg of Magnolia extract and 100 mg/kg of Kochia extract. The percent inhibition of pain and inflammation of the combined compositions at 300 mg/kg were compared with those dosages of individual extracts to find out potential additive, antagonistic or synergistic effects in combination using the Colby's equation.
(§3) The merit of combining Alpinia with Pepper for AP (1:2 ratio) was evaluated in the carrageenan rat paw edema model. Rats were gavaged with each constituent as they appeared in 300 mg/kg of the AP. For the 1:2 ratio of AP, 100 mg/kg of Alpinia and 200 mg/kg of Pepper extract were administered to the rats. The percent inhibition of pain and inflammation of the compositions at 300 mg/kg was compared with those dosages of individual extracts to find out potential additive, antagonistic or synergistic effects in combination using Colby's equation (Colby 1967). For the blending of these plant extracts to have unexpected synergy, the observed inhibition needed to be greater than the calculated value.

[4] = tested on: Carrageenan-induced paw edema in rats; test: Carrageenan-induced paw edema in rats, pain sensitivity (anti-pain); format: in vivo, rat
Protocol: as §1, §2, §3

[5] = hot plate 53° C., topical, vehicle V1 (DMSO+PG+Aloe 2%), dose (%): Ibuprofen 5, Capsaicin 0.5, Diclofenac 1, others 5
[6] = vs vehicle V1, dose (%): Ibuprofen 5, Capsaicin 0.5, Diclofenac 1, others 5
[7] = 100 mg/kg oral, 1 hr after treatment
[8] = 100 mg/kg oral, 3 hr after treatment
[9] = 100 mg/kg oral, 5 hr after treatment
[10] = 150 mg/kg oral, 1 hr after treatment
[11] = 150 mg/kg oral, 3 hr after treatment
[12] = 150 mg/kg oral, 5 hr after treatment

C=C[C@H](OC(C)=O)c1ccc(OC(C)=O)cc1 [1′-acetoxychavicol acetate]
inhibition at 25 µg/mL ([1]; Oryctolagus cuniculus): 99%
inhibition at 100 µg/mL ([1]; Oryctolagus cuniculus): 109%

COc1cc(CNC(=O)CCCC/C=C/C(C)C)ccc1O [Capsaicin]
Paw withdrawal threshold (latency) Mean ± SD [2, 5]: 4.51 ± 1.12
decrease in paw withdrawal latency compared to vehicle ([2]; topical, hot plate 53° C.): 36.7%
% Change [2, 6]: 36.7%

C=CCc1ccc(O)c(-c2ccc(O)c(CC=C)c2)c1 [Honokiol]
inhibition at 10 µg/mL ([1]; Oryctolagus cuniculus, 10 μg/ml): 104%
inhibition at 50 µg/mL ([1]; Oryctolagus cuniculus, 50 μg/ml): 119%

CC(C)Cc1ccc(C(C)C(=O)O)cc1 (stereo not drawn) [Ibuprofen]
Anti-inflammation Percent change vs vehicle [3, 7]: 50.07% and 45.00% and 51.0%
Anti-inflammation Percent change vs vehicle [3, 8]: 47.40% and 50.31% and 48.0%
Anti-inflammation Percent change vs vehicle [3, 9]: 37.28% and 41.84% and 39.0%
Paw edema, Average ([3]; 150 mg/kg oral, 1 hr): 1.43
Anti-inflammation Percent change vs vehicle [3, 10]: 43.03% and 49.50% and 47.3%
Paw edema, Average ([3]; 150 mg/kg oral, 3 hr): 1.59
Anti-inflammation Percent change vs vehicle [3, 11]: 48.38% and 48.62% and 49.7%
Paw edema, Average ([3]; 150 mg/kg oral, 5 hr): 1.77
Anti-inflammation Percent change vs vehicle [3, 12]: 36.79% and 37.66% and 37.6%
Anti-pain Percent change vs vehicle [4, 7]: 50.51% and 48.44% and 50.5%
Anti-pain Percent change vs vehicle [4, 8]: 46.37% and 47.46% and 46.1%
Anti-pain Percent change vs vehicle [4, 9]: 37.42% and 37.77% and 38.5%
Pain sensitivity, Average ([4]; 150 mg/kg oral, 1 hr): 25.02
Anti-pain Percent change vs vehicle [4, 10]: 46.49% and 50.51% and 44.4%
Pain sensitivity, Average ([4]; 150 mg/kg oral, 3 hr): 35.67
Anti-pain Percent change vs vehicle [4, 11]: 45.85% and 46.37% and 47.9%
Pain sensitivity, Average ([4]; 150 mg/kg oral, 5 hr): 45.49
Anti-pain Percent change vs vehicle [4, 12]: 33.55% and 37.42% and 30.8%
Paw withdrawal threshold (latency) Mean ± SD [2, 5]: 8.73 ± 1.37
Paw withdrawal threshold (latency) Mean ± SD ([2]; hot plate 53° C., topical, vehicle V2 (DMSO+OIL+PG), run 2, dose 5%): 6.05 ± 1.98
increase in paw withdrawal latency as compared to vehicle ([2]; topical, hot plate 53° C.): 22.4%
% Change [2, 6]: −22.4%
% Change ([2]; vs vehicle V2 run 2, dose 5%): −23.98%

C=CCc1ccc(O)c(-c2cc(CC=C)ccc2O)c1 [Magnolol]
Inhibition of GAG release ([1]; 10 μg/ml): 97%
Inhibition of GAG release ([1]; 50 μg/ml): 97%

CC1CCC(C(C)C)C(O)C1 (stereo not drawn) [Menthol]
Paw withdrawal threshold (latency) Mean ± SD [2, 5]: 6.05 ± 1.70
% Change [2, 6]: 15.1%

CC1(C)CCC2(C(=O)O)CCC3(C)C(=CCC4C5(C)CCC(OC6OC(C(=O)O)C(O)C(OC7OCC(O)C(O)C7O)C6O)C(C)(C)C5CCC43C)C2C1 (stereo not drawn) [Momordin lc]
inhibition at 25 µg/mL ([1]; Oryctolagus cuniculus): 84%
inhibition at 100 µg/mL ([1]; Oryctolagus cuniculus): 83%

CC(=O)OC/C=C/c1ccc(OC(C)=O)cc1 [p-coumaryl diacetate]
inhibition at 25 µg/mL ([1]; Oryctolagus cuniculus): 111%
inhibition at 100 µg/mL ([1]; Oryctolagus cuniculus): 138%

Piperine
Inhibition of GAG release ([1]; 50 μg/ml): 98%
Paw withdrawal threshold (latency) Mean ± SD ([2]; hot plate 53° C., topical, vehicle V2 (DMSO+OIL+PG), run 1, dose 5%): 7.97 ± 1.86
increase in paw withdrawal latency as compared to vehicle ([2]; topical, hot plate 53° C.): 32.6%
% Change ([2]; vs vehicle V2 run 1, dose 5%): −32.6%
